From ChEMBL document CHEMBL1165900, “A computational study of the binding of 3-(arylidene) anabaseines to two major brain nicotinic acetylcholine receptors and to the acetylcholine binding protein” (Eur J Med Chem, 2010) come the findings set out here.

Test [1] has as its target Neuronal acetylcholine receptor; alpha4/beta2 (Rattus norvegicus, UniProt P09483+P12390). Kind of test: (§1) Displacement of [3H]cytisine from alpha4beta2 nAChR in rat brain membrane after 3 hrs. The test is classed as cell membranes.
Test [2] deals with Neuronal acetylcholine receptor; alpha4/beta2 (Rattus norvegicus) (UniProt P09483+P12390). The description is as §1. The format is cell membranes.
In test [3] the target is Neuronal acetylcholine receptor subunit alpha-7 (Rattus norvegicus) (UniProt Q05941). Particulars: Brain, Membrane.
Neuronal acetylcholine receptor subunit alpha-7 (Rattus norvegicus), sequence (Q05941 whole entry): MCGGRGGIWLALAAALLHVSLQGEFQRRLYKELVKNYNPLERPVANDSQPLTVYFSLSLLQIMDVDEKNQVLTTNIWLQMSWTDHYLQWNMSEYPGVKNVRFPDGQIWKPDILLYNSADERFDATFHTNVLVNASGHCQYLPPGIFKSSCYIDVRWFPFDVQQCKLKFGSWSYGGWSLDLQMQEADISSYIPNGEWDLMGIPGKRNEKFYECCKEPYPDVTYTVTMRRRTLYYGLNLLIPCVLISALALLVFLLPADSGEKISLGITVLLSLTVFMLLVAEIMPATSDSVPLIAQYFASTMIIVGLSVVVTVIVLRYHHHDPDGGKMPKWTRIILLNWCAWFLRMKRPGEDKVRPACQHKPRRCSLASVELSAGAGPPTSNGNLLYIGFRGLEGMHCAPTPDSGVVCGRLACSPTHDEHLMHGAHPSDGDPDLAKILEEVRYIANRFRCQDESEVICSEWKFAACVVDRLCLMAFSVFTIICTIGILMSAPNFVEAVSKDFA
Description: (§2) Displacement of [125I]-alpha-bungarotoxin from alpha7 nAChR in rat brain membrane after 3 hrs
Test [4] has as its target Neuronal acetylcholine receptor subunit alpha-7 (Rattus norvegicus, UniProt Q05941). The test is classed as cell membranes, Brain, Membrane.
Description: as §2

Neuronal acetylcholine receptor subunit alpha-7, sequence (Q05941 whole entry): as above
Neuronal acetylcholine receptor; alpha4/beta2, sequence (P09483 whole entry): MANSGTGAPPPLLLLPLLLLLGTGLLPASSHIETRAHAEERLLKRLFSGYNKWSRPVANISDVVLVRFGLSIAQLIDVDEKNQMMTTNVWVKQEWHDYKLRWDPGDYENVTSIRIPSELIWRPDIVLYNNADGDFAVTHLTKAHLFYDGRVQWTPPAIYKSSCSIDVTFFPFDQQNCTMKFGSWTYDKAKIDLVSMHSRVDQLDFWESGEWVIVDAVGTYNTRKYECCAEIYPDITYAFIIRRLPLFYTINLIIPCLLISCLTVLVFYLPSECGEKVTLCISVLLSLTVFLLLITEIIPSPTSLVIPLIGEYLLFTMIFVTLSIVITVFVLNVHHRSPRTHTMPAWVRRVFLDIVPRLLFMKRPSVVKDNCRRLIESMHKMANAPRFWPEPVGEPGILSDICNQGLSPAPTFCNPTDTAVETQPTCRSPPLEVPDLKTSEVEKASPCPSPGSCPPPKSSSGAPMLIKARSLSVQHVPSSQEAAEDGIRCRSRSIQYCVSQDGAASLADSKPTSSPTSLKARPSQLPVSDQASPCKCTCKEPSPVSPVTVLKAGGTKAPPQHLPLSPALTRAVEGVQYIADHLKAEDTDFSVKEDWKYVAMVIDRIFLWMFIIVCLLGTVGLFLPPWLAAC
Neuronal acetylcholine receptor; alpha4/beta2, sequence (P12390 whole entry): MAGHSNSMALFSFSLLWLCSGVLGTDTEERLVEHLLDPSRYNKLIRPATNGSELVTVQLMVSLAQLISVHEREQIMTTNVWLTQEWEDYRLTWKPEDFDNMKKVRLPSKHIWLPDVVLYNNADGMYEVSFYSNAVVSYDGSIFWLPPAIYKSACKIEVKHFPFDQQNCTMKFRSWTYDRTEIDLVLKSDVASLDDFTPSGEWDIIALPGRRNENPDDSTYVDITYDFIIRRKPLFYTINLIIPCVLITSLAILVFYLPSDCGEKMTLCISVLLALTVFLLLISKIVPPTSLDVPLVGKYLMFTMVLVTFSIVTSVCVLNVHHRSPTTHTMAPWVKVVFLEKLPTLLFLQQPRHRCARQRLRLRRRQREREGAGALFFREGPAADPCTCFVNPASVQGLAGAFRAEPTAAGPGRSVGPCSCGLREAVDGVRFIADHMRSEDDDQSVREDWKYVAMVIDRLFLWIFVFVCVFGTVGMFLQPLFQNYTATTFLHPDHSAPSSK

Turning to `CC(C)(C)Oc1ccc(/C=C2\CCCN=C2c2cccnc2)cc1`, the Ki was determined as 2170 nM in test [1], 336 nM in test [2], 348 nM in test [3] and 2230 nM in test [4].

Take `Clc1ccc(/C=C2\CCCN=C2c2cccnc2)cc1`: the inhibition constant (Ki) in test [1] was 970 nM; in test [2], 13 nM; in test [3], 49 nM; in test [4], 1120 nM.

In the case of `C(=C1/CCCN=C1c1cccnc1)/c1ccc(-n2ccnn2)cc1`, the Ki in test [2] was 284 nM; in test [3] it was 72 nM.

In the case of `Nc1ccc(/C=C2\CCCN=C2c2cccnc2)cc1`, the Ki came to 120 nM in test [1], 921 nM in test [2], 1300 nM in test [3] and 50 nM in test [4].

On to `C(=C1/CCCN=C1c1cccnc1)/c1ccccc1` [3-BENZYLIDENEANABASEINE], for which the Ki in test [1] stood at 850 nM; in test [2] it was 71 nM; in test [3], 222 nM; in test [4] it was 600 nM.

On to `Oc1ccc(/C=C2\CCCN=C2c2cccnc2)c(O)c1`, for which the Ki in test [1] is 210 nM; in test [2], 678 nM; in test [3], 699 nM; in test [4], 200 nM.

Consider `Cc1cc(/C=C2\CCCN=C2c2cccnc2)cc(C)c1O`, for which the Ki in test [1] was found to be 360 nM; in test [2], 444 nM; in test [3] it was 276 nM; in test [4] it was 530 nM.

For the compound `Oc1ccc(/C=C2\CCCN=C2c2cccnc2)cc1`, the Ki in test [1] came to 450 nM; in test [2], 347 nM; in test [3] it was 444 nM; in test [4] it was 360 nM.

Take `CCC(CC)Oc1cc(OC)ccc1/C=C1\CCCN=C1c1cccnc1`: the inhibition constant Ki worked out at 430 nM in test [1], 367 nM in test [2], 1300 nM in test [3] and 50 nM in test [4].

Take `N#Cc1ccc(/C=C2\CCCN=C2c2cccnc2)cc1`: the inhibition constant Ki in test [1] worked out at 1230 nM; in test [2], 90 nM; in test [3], 362 nM; in test [4] it was 2300 nM.

On to `C(=C1/CCCN=C1c1cccnc1)/c1ccc(N2CCOCC2)cc1`, for which the Ki came out at 280 nM in test [1], 553 nM in test [2], 523 nM in test [3] and 300 nM in test [4].

As for `COc1cc(OC)c(/C=C2\CCCN=C2c2cccnc2)c(OC)c1`, the Ki is 60 nM in test [1], 1220 nM in test [2], 745 nM in test [3] and 180 nM in test [4].

For the compound `FC(F)(F)Oc1ccccc1/C=C1\CCCN=C1c1cccnc1`, the Ki came to 1760 nM in test [1] and 246 nM in test [2].

Regarding `CC(C)(C)C(=O)Oc1ccc(/C=C2\CCCN=C2c2cccnc2)cc1`, the inhibition constant Ki in test [1] was 830 nM; in test [2] it was 81 nM; in test [3], 161 nM; in test [4] it was 690 nM.

As to `Cc1ccc(/C=C2\CCCN=C2c2cccnc2)cc1`, the Ki in test [1] came to 990 nM; in test [2], 4 nM; in test [3], 361 nM; in test [4], 436 nM.

Take `Cc1cc(C)c(/C=C2\CCCN=C2c2cccnc2)c(C)c1`: the Ki in test [1] turned out to be 520 nM; in test [2], 284 nM; in test [3] it was 179 nM; in test [4], 1510 nM.

Regarding `C(=C1/CCCN=C1c1cccnc1)/c1ccc2c(c1)OCCO2`, the Ki in test [2] stood at 284 nM; in test [3] it was 699 nM.

Consider `CC(=O)Oc1ccc(/C=C2\CCCN=C2c2cccnc2)cc1`, for which the inhibition constant Ki in test [1] was 250 nM; in test [2], 602 nM; in test [3], 770 nM; in test [4], 170 nM.

Consider `FC(F)Oc1ccc(/C=C2\CCCN=C2c2cccnc2)cc1`, for which the Ki came out at 1160 nM in test [1], 64 nM in test [2], 4 nM in test [3] and 1010 nM in test [4].

`COc1ccc(/C=C2\CCCN=C2c2cccnc2)c(O)c1`: the inhibition constant Ki in test [1] was determined as 390 nM; in test [2], 409 nM; in test [3], 495 nM; in test [4], 320 nM.

With `Cc1cc(O)cc(C)c1/C=C1\CCCN=C1c1cccnc1`, the inhibition constant Ki was 670 nM in test [1], 174 nM in test [2], 740 nM in test [3] and 5490 nM in test [4].

Regarding `COc1ccc(/C=C2\CCCN=C2c2cccnc2)c(OC(C)C)c1`, the Ki came to 170 nM in test [1], 770 nM in test [2], 1160 nM in test [3] and 70 nM in test [4].

In the case of `CC(=O)Oc1ccccc1/C=C1\CCCN=C1c1cccnc1`, the inhibition constant Ki in test [1] was found to be 700 nM; in test [2] it was 155 nM; in test [3], 244 nM; in test [4], 570 nM.

For `COc1ccc(/C=C2\CCCN=C2c2cccnc2)c(OC)c1` [GTS-21], the inhibition constant Ki in test [1] is 250 nM; in test [2], 602 nM; in test [3] it was 886 nM; in test [4], 130 nM.

For `COc1cc(/C=C2\CCCN=C2c2cccnc2)cc(OC)c1OC`, the inhibition constant (Ki) in test [1] was 4670 nM; in test [2] it was 669 nM; in test [3] it was 542 nM; in test [4] it was 3480 nM.

Take `Oc1cccc(/C=C2\CCCN=C2c2cccnc2)c1`: the inhibition constant Ki in test [1] was 1170 nM; in test [2] it was 68 nM; in test [3], 824 nM; in test [4], 150 nM.

In the case of `COc1cccc(/C=C2\CCCN=C2c2cccnc2)c1`, the Ki came out at 1180 nM in test [1], 72 nM in test [2], 337 nM in test [3] and 460 nM in test [4].

Take `CCN(CC)c1ccc(/C=C2\CCCN=C2c2cccnc2)c(O)c1`: the Ki in test [1] worked out at 130 nM; in test [2], 886 nM; in test [3], 1300 nM; in test [4], 50 nM.

Turning to `CCCc1ccc(/C=C2\CCCN=C2c2cccnc2)cc1`, the inhibition constant (Ki) in test [1] worked out at 890 nM; in test [2], 51 nM; in test [3], 553 nM; in test [4], 280 nM.

`CCCCOc1ccc(/C=C2\CCCN=C2c2cccnc2)cc1` showed a Ki in test [1] of 1960 nM.

On to `CSc1ccc(/C=C2\CCCN=C2c2cccnc2)cc1`, for which the Ki in test [1] amounted to 900 nM; in test [2] it was 46 nM; in test [3], 602 nM; in test [4] it was 250 nM.

Take `CN(C)c1ccc(/C=C2\CCCN=C2c2cccnc2)cc1`: the inhibition constant Ki was 170 nM in test [1], 770 nM in test [2], 1100 nM in test [3] and 80 nM in test [4].

Take `CC(=O)c1ccc(/C=C2\CCCN=C2c2cccnc2)cc1`: in test [1], the affinity, expressed as Ki, was 4490 nM.

As for `FC(F)Oc1ccccc1/C=C1\CCCN=C1c1cccnc1`, the Ki in test [1] was 1410 nM.

Regarding `COc1ccc(/C=C2\CCCN=C2c2cccnc2)cc1`, the Ki in test [1] is 490 nM; in test [2], 310 nM; in test [3] it was 244 nM; in test [4] it was 570 nM.

For the compound `OCCN(CCO)c1ccc(/C=C2\CCCN=C2c2cccnc2)cc1`, the inhibitory constant (Ki) in test [1] turned out to be 160 nM; in test [2], 796 nM; in test [3], 721 nM; in test [4], 190 nM.

Take `CC(C)(C)C(=O)Oc1ccccc1/C=C1\CCCN=C1c1cccnc1`: the Ki in test [1] amounted to 1440 nM; in test [2], 158 nM; in test [3] it was 187 nM; in test [4] it was 650 nM.

In the case of `C(=C1/CCCN=C1c1cccnc1)/c1ccc2c(c1)OCO2`, the Ki is 155 nM in test [2] and 638 nM in test [3].

On to `C(=C1/CCCN=C1c1cccnc1)/c1cc2ccccc2o1`, for which the inhibitory constant (Ki) was determined as 772 nM in test [2] and 823 nM in test [3].

With `FC(F)(F)Oc1ccc(/C=C2\CCCN=C2c2cccnc2)cc1`, the Ki in test [1] came out at 930 nM.

As to `COc1ccc2cc(/C=C3\CCCN=C3c3cccnc3)ccc2c1`, the Ki in test [2] came out at 222 nM; in test [3], 432 nM.

For the compound `CNc1ccc(/C=C2\CCCN=C2c2cccnc2)cc1`, the Ki stood at 50 nM in test [1], 1300 nM in test [2], 1300 nM in test [3] and 50 nM in test [4].

For `CC(=O)Nc1ccc(/C=C2\CCCN=C2c2cccnc2)cc1`, the Ki in test [1] was found to be 380 nM; in test [2], 420 nM; in test [3], 620 nM; in test [4], 240 nM.

As for `COc1ccc(/C=C2\CCCN=C2c2cccnc2)c(OC(C)=O)c1`, the inhibition constant Ki in test [1] turned out to be 770 nM; in test [2] it was 114 nM; in test [3], 523 nM; in test [4], 300 nM.
